This is an account of results in patent publication EP3838286B1, “ANTIMICROBIAL PEPTIDE FROM POLISTES GALLICUS VENOM AND ITS ANALOGS” (Latoxan, priority 2019, dated 2021).

“And” between values parts separate entries of the source, which are not always exact repeats. Identical values can stand only once. Ends that are not written are not given here. Bounds are passed on as bounds.

In data set [1] the test system is human erythrocytes. In words: Hemolytic activity assay. Format: cell-based. As to the method: The hemolytic activity of each peptide was determined by the leakage of hemoglobin from human erythrocytes (obtained from Divbioscience, NL) as previously described (Oyama et al., 2017 Biofilms Microbiomes, Dec 1;3:33).
Briefly, human erythrocytes were washed 3 times with phosphate buffer saline (PBS) and concentrated using centrifugation at 800 g for 5 min. Human erythrocytes were then resuspended in PBS at a final concentration of 8 %. 100 µl of human erythrocytes were then added per well of sterile 96 well microplate already containing 15 µl of serially diluted antimicrobials (1:2 in distilled water). After 1 h at 37°C, the microplate was centrifuged at 800 g for 5 min. 100 µl were then carefully collected and transferred to a new 96 well microplate and OD was measured at 405 nm. Hemolysis caused by peptides was expressed as percentage of hemolysis; Triton-X100 at 0.1 % (v:v) was used as positive control and gave 100 % hemolysis. Hemolysis rate was determined as below: Hemolysis rate (%) = (A−A2)/(A1−A2) × 100% [formula] where A is the absorbance of indicator mixtures with different factors, A1 and A2 are the positive control, and the negative control, respectively.

The subject of data set [2] is P. aeruginosa.
Data set [3] deals with Gram-positive and Gram-negative bacteria.
Data set [4] concerns P. aeruginosa. The conditions noted are these: Konno et al., Peptides 2006; cited from earlier work.
The test system of data set [5] is E. coli. The conditions noted are these: Konno et al., Peptides 2006; cited from earlier work.
Data set [6] concerns HeLa TLR4/IL-8 Renilla Luciferase Reporter cell line. In words: Anti-inflammatory activity (LPS stimulation, luciferase reporter). Format: cell-based. The conditions noted are these: 10 ng/mL LPS from P. aeruginosa; 6 h incubation; read-out: IC50 (inhibition of LPS effect). As to the method:
Anti-inflammatory activity of the peptides was determined using eLUCidate™ HeLa TLR4/IL-8 Renilla Luciferase Reporter cell line (obtained from ASMBIO). eLUCidate™ HeLa cells were cultivated according to manufacturer instructions. eLUCidate™ HeLa cells were seeded in 96 wells plates at an initial 50,000 cells/well. The next day, media from wells was empty and cells were exposed to LPS from P. aeruginosa (from Sigma Aldrich) diluted in culture media at a final concentration of 10 ng/ml in the presence of increasing concentrations of peptides. Polymyxin B (PMB, from Sigma Aldrich) was used as positive control. After 6 h incubation at 37°C in an incubator containing 5% CO2, wells were empty and cells were lysed in 70 µl of PBS containing 1% Triton X100 for 15 min on ice. 50 µl of cell lysats were then transferred to white 96 wells plates containing 50 µl of Renilla Luciferase substrate (Genofax A from Yelen, Marseille France). Luminescence intensities were measured using microplate reader (Synergy Mx, Biotek). The luminescence values were normalized by the controls (buffer treated cells) and expressed as percent of LPS stimulation. […]

For data set [7], the system named is S. aureus.
Data set [8] concerns E. coli.
Data set [9] has as its system B. subtilis.
Data set [10] relates to Candida albicans.
Data set [11] has as its system A.baumani.

Regarding ILSAILGLLKNL-NH2 [Gallicus-CP(I1L12)], the “50% MHC (concentration inducing 50% hemolysis of human erythrocytes)” value in [1] is recorded as 10 µM. For the same substance, the “MIC (µM) P. aeruginosa” value in data set [2] was 100 µM. Further, the “minimal inhibitory concentration (MIC)” value in [3] was in the range of 1.56 to 100 µM.
Regarding eumenitin, the “effective concentration against P. aeruginosa” value in data set [4] is 30 µM. Besides, the “effective concentration against E. coli” value in [5] is on record as 6 µM.
With Polymyxin B [PMB], the IC50 in [6] was 57 nM and 57.6 nM.
As to “ILKAIKKLLKN-NH2 [LTX-gallicune-1 (I1N11)]”, the “MIC against S. aureus” value in data set [7] is at least 100 µM. Moreover, in data set [8], the “MIC (µM) E. coli” value is reported as 6.25 µM and the “MIC against E. coli” value was above 50 µM. Moreover, in data set [1] (at 1mM), the hemolytic activity entry was “not hemolytic”. Further, in [1] (highest concentration tested), the “hemotoxicity: no toxicity towards red blood cells up to” value was above 10 mM. Further, the “times less toxic (hemotoxic) than Gallicus-CP” value in [1] (human erythrocytes, Fig 3) turned out to be 1000 times. Also, the “MIC against B. subtilis” value in data set [9] is recorded as 6.25 µM. Also, the “MIC against Candida albicans” value in data set [10] came to 50 µM. In addition, the “MIC (µM) A.baumani” value in data set [11] is recorded as 100 µM.
